Experimental data as given in patent US20260262643A1, “HERBICIDAL BENZOXAZINES” (FMC CORPORATION, priority 2022, published 2026).

Tests used:
barnyardgrass [1] = experiment: Test C preemergence; format: in vivo, Echinochloa crusgalli; conditions: 0 to 100 scale (0 no effect, 100 complete control); for Plant response rating, Barnyardgrass: Preemergence, 500 g ai/ha, visual rating after 10 days; for Barnyardgrass plant response rating: Test C, preemergence, 125 g ai/ha
Summary of the method: (§1)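 Seeds sown in loam soil–sand blend received a directed preemergence soil spray of test chemical in non-phytotoxic solvent with surfactant; postemergence plants (2–10 cm, one- to two-leaf stage) were sprayed with the same formulation. Greenhouse-held 10 days, then visually rated for injury versus untreated controls, 0 (no effect) to 100 (complete control).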

barnyardgrass [2] = experiment: Test D flooded paddy test; format: in vivo, Echinochloa crus-galli; conditions: 250 g ai/ha, applied to paddy water, visual rating after 13 to 14 days, scale 0 to 100 (0 no effect, 100 complete control)
Description: (§2) Plant species in the flooded paddy test selected from barnyardgrass (Echinochloa crus-galli), ducksalad (Heteranthera limosa), rice (Oryza sativa), and sedge, umbrella (small-flower umbrella sedge, Cyperus difformis) were grown to the 2-leaf stage for testing. At time of treatment, test pots were flooded to 3 cm above the soil surface, treated by application of test compounds directly to the paddy water, and then maintained at that water depth for the duration of the test. Treated plants and controls were maintained in a greenhouse for 13 to 14 days, after which time all species were compared to controls and visually evaluated. Plant response ratings, summarized in Table D, are based on a scale of 0 to 100 where 0 is no effect and 100 is complete control. A dash (-) response means no test result.

pigweed, palmer [3] = experiment: Test C preemergence; format: in vivo, Amaranthus palmeri; conditions: 0 to 100 scale (0 no effect, 100 complete control); for Plant response rating, Pigweed, Palmer: Preemergence, 500 g ai/ha, visual rating after 10 days; for Pigweed, Palmer plant response rating: Test C, preemergence, 125 g ai/ha
Summary of the method: as §1

kochia [4] = experiment: Test C postemergence; format: in vivo, Bassia scoparia; conditions: 10 days
Summary of the method: as §1

corn [5] = experiment: Test C postemergence; format: in vivo, Zea mays; conditions: 10 days
Summary of the method: as §1

sedge, umbrella = experiment: Test D flooded paddy test; format: in vivo, Cyperus difformis; conditions: 250 g ai/ha, applied to paddy water, visual rating after 13 to 14 days, scale 0 to 100 (0 no effect, 100 complete control)
Description: as §2

galium = experiment: Test C postemergence; format: in vivo, Galium aparine; conditions: 10 days
Summary of the method: as §1

horseweed = experiment: Test C postemergence; format: in vivo, Erigeron canadensis; conditions: 10 days
Summary of the method: as §1

soybean [6] = experiment: Test C preemergence; format: in vivo, Glycine max; conditions: 0 to 100 scale (0 no effect, 100 complete control); for Plant response rating, Soybean: Preemergence, 500 g ai/ha, visual rating after 10 days; for Soybean plant response rating: Test C, preemergence, 125 g ai/ha
Summary of the method: as §1

rice = experiment: Test D flooded paddy test; format: in vivo, Oryza sativa; conditions: 250 g ai/ha, applied to paddy water, visual rating after 13 to 14 days, scale 0 to 100 (0 no effect, 100 complete control)
Description: as §2

blackgrass [7] = experiment: Test C preemergence; format: in vivo, Alopecurus myosuroides; conditions: 0 to 100 scale (0 no effect, 100 complete control); for Plant response rating, Blackgrass: Preemergence, 500 g ai/ha, visual rating after 10 days; for Blackgrass plant response rating: Test C, preemergence, 125 g ai/ha
Summary of the method: as §1

wheat [8] = experiment: Test C postemergence; format: in vivo, Triticum aestivum; conditions: 10 days
Summary of the method: as §1

ryegrass, Italian [9] = experiment: Test C postemergence; format: in vivo, Lolium multiflorum; conditions: 10 days
Summary of the method: as §1

soybean [10] = experiment: Test C postemergence; format: in vivo, Glycine max; conditions: 10 days
Summary of the method: as §1

ragweed [11] = experiment: Test C postemergence; format: in vivo, Ambrosia artemisiifolia; conditions: 10 days
Summary of the method: as §1

oat, wild [12] = experiment: Test C postemergence; format: in vivo, Avena fatua; conditions: 10 days
Summary of the method: as §1

kochia [13] = experiment: Test C preemergence; format: in vivo, Bassia scoparia; conditions: 0 to 100 scale (0 no effect, 100 complete control); for Plant response rating, Kochia: Preemergence, 500 g ai/ha, visual rating after 10 days; for Kochia plant response rating: Test C, preemergence, 125 g ai/ha
Summary of the method: as §1

oat, wild [14] = experiment: Test C preemergence; format: in vivo, Avena fatua; conditions: 0 to 100 scale (0 no effect, 100 complete control); for Plant response rating, Oat, Wild: Preemergence, 500 g ai/ha, visual rating after 10 days; for Oat, Wild plant response rating: Test C, preemergence, 125 g ai/ha
Summary of the method: as §1

pigweed, palmer [15] = experiment: Test C postemergence; format: in vivo, Amaranthus palmeri; conditions: 10 days
Summary of the method: as §1

ducksalad = experiment: Test D flooded paddy test; format: in vivo, Heteranthera limosa; conditions: 250 g ai/ha, applied to paddy water, visual rating after 13 to 14 days, scale 0 to 100 (0 no effect, 100 complete control)
Description: as §2

ryegrass, Italian [16] = experiment: Test C preemergence; format: in vivo, Lolium multiflorum; conditions: 0 to 100 scale (0 no effect, 100 complete control); for Plant response rating, Ryegrass, Italian: Preemergence, 500 g ai/ha, visual rating after 10 days; for Ryegrass, Italian plant response rating: Test C, preemergence, 125 g ai/ha
Summary of the method: as §1

wheat [17] = experiment: Test C preemergence; format: in vivo, Triticum aestivum; conditions: 0 to 100 scale (0 no effect, 100 complete control); for Plant response rating, Wheat: Preemergence, 500 g ai/ha, visual rating after 10 days; for Wheat plant response rating: Test C, preemergence, 125 g ai/ha
Summary of the method: as §1

ragweed [18] = experiment: Test C preemergence; format: in vivo, Ambrosia artemisiifolia; conditions: 0 to 100 scale (0 no effect, 100 complete control); for Plant response rating, Ragweed: Preemergence, 500 g ai/ha, visual rating after 10 days; for Ragweed plant response rating: Test C, preemergence, 125 g ai/ha
Summary of the method: as §1

blackgrass [19] = experiment: Test C postemergence; format: in vivo, Alopecurus myosuroides; conditions: 10 days
Summary of the method: as §1

green foxtail = experiment: Test C preemergence; format: in vivo, Setaria viridis; conditions: 0 to 100 scale (0 no effect, 100 complete control); for Plant response rating, Foxtail, Green: Preemergence, 500 g ai/ha, visual rating after 10 days; for Foxtail, Green plant response rating: Test C, preemergence, 125 g ai/ha
Summary of the method: as §1

barnyardgrass [20] = experiment: Test C postemergence; format: in vivo, Echinochloa crusgalli; conditions: 10 days
Summary of the method: as §1

corn [21] = experiment: Test C preemergence; format: in vivo, Zea mays; conditions: 0 to 100 scale (0 no effect, 100 complete control); for Plant response rating, Corn: Preemergence, 500 g ai/ha, visual rating after 10 days; for Corn plant response rating: Test C, preemergence, 125 g ai/ha
Summary of the method: as §1

[22] = 125 g ai/ha, postemergence, 0 to 100 scale, 0 no effect, 100 complete control
[23] = Postemergence, 500 g ai/ha, visual 0 to 100 scale (0 no effect, 100 complete control)

SMILES: COC[C@H]1CN(C(=O)c2cc(-n3cnc(C4CCC4)n3)ccc2OC)c2cccc(Cl)c2O1 [Compound 236]
- Plant response rating, Barnyardgrass (barnyardgrass [1]): 80
- Barnyardgrass plant response rating (barnyardgrass [1]): 20
- Plant response rating, Barnyardgrass (Flood) (barnyardgrass [2]): 0
- Plant response rating, Pigweed, Palmer (pigweed, palmer [3]): 100
- Pigweed, Palmer plant response rating (pigweed, palmer [3]): 80
- Plant response rating, Kochia (kochia [4]; [22]): 90
- Plant response rating, Kochia (kochia [4]; [23]): 90
- Plant response rating, Corn (corn [5]; [22]): 30
- Plant response rating, Corn (corn [5]; [23]): 80
- Plant response rating, Sedge, Umbrella (Flood) (sedge, umbrella): 95
- Plant response rating, Galium (galium; [22]): 100
- Plant response rating, Galium (galium; [23]): 100
- Plant response rating, Horseweed (horseweed; [22]): 70
- Plant response rating, Horseweed (horseweed; [23]): 70
- Plant response rating, Soybean (soybean [6]): 70
- Soybean plant response rating (soybean [6]): 40
- Plant response rating, Rice (Flood) (rice): 0
- Plant response rating, Blackgrass (blackgrass [7]): 10
- Blackgrass plant response rating (blackgrass [7]): 0
- Plant response rating, Wheat (wheat [8]; [22]): 20
- Plant response rating, Wheat (wheat [8]; [23]): 30
- Plant response rating, Ryegrass, Italian (ryegrass, Italian [9]; [22]): 60
- Plant response rating, Ryegrass, Italian (ryegrass, Italian [9]; [23]): 90
- Plant response rating, Soybean (soybean [10]; [22]): 100
- Plant response rating, Soybean (soybean [10]; [23]): 100
- Plant response rating, Ragweed (ragweed [11]; [22]): 80
- Plant response rating, Ragweed (ragweed [11]; [23]): 90
- Plant response rating, Oat, Wild (oat, wild [12]; [22]): 10
- Plant response rating, Oat, Wild (oat, wild [12]; [23]): 40
- Plant response rating, Kochia (kochia [13]): 90
- Kochia plant response rating (kochia [13]): 40
- Plant response rating, Oat, Wild (oat, wild [14]): 30
- Oat, Wild plant response rating (oat, wild [14]): 10
- Plant response rating, Pigweed, Palmer (pigweed, palmer [15]; [22]): 90
- Plant response rating, Pigweed, Palmer (pigweed, palmer [15]; [23]): 90
- Plant response rating, Ducksalad (Flood) (ducksalad): 75
- Plant response rating, Ryegrass, Italian (ryegrass, Italian [16]): 50
- Ryegrass, Italian plant response rating (ryegrass, Italian [16]): 50
- Plant response rating, Wheat (wheat [17]): 10
- Wheat plant response rating (wheat [17]): 0
- Plant response rating, Ragweed (ragweed [18]): 80
- Ragweed plant response rating (ragweed [18]): 20
- Plant response rating, Blackgrass (blackgrass [19]; [22]): 20
- Plant response rating, Blackgrass (blackgrass [19]; [23]): 90
- Plant response rating, Foxtail, Green (green foxtail): 100
- Foxtail, Green plant response rating (green foxtail): 90
- Plant response rating, Barnyardgrass (barnyardgrass [20]; [22]): 40
- Plant response rating, Barnyardgrass (barnyardgrass [20]; [23]): 90
- Plant response rating, Corn (corn [21]): 0
- Corn plant response rating (corn [21]): 0

SMILES: Cc1ccc(-n2cnc(C3(C)CC3)n2)cc1C(=O)N1C[C@H](C)Oc2c(Cl)cccc21 [Compound 252]
- Plant response rating, Barnyardgrass (barnyardgrass [1]): 90
- Barnyardgrass plant response rating (barnyardgrass [1]): 80
- Plant response rating, Barnyardgrass (Flood) (barnyardgrass [2]): 35
- Plant response rating, Pigweed, Palmer (pigweed, palmer [3]): 100
- Pigweed, Palmer plant response rating (pigweed, palmer [3]): 100
- Plant response rating, Kochia (kochia [4]; [22]): 90
- Plant response rating, Kochia (kochia [4]; [23]): 100
- Plant response rating, Corn (corn [5]; [22]): 60
- Plant response rating, Corn (corn [5]; [23]): 80
- Plant response rating, Sedge, Umbrella (Flood) (sedge, umbrella): 15
- Plant response rating, Galium (galium; [22]): 100
- Plant response rating, Galium (galium; [23]): 100
- Plant response rating, Horseweed (horseweed; [22]): 20
- Plant response rating, Horseweed (horseweed; [23]): 50
- Plant response rating, Soybean (soybean [6]): 80
- Soybean plant response rating (soybean [6]): 20
- Plant response rating, Rice (Flood) (rice): 0
- Plant response rating, Blackgrass (blackgrass [7]): 20
- Blackgrass plant response rating (blackgrass [7]): 0
- Plant response rating, Wheat (wheat [8]; [22]): 20
- Plant response rating, Wheat (wheat [8]; [23]): 30
- Plant response rating, Ryegrass, Italian (ryegrass, Italian [9]; [22]): 80
- Plant response rating, Ryegrass, Italian (ryegrass, Italian [9]; [23]): 80
- Plant response rating, Soybean (soybean [10]; [22]): 100
- Plant response rating, Soybean (soybean [10]; [23]): 100
- Plant response rating, Ragweed (ragweed [11]; [22]): 70
- Plant response rating, Ragweed (ragweed [11]; [23]): 80
- Plant response rating, Oat, Wild (oat, wild [12]; [22]): 10
- Plant response rating, Oat, Wild (oat, wild [12]; [23]): 10
- Plant response rating, Kochia (kochia [13]): 100
- Kochia plant response rating (kochia [13]): 100
- Plant response rating, Oat, Wild (oat, wild [14]): 70
- Oat, Wild plant response rating (oat, wild [14]): 20
- Plant response rating, Pigweed, Palmer (pigweed, palmer [15]; [22]): 90
- Plant response rating, Pigweed, Palmer (pigweed, palmer [15]; [23]): 100
- Plant response rating, Ducksalad (Flood) (ducksalad): 15
- Plant response rating, Ryegrass, Italian (ryegrass, Italian [16]): 80
- Ryegrass, Italian plant response rating (ryegrass, Italian [16]): 60
- Plant response rating, Wheat (wheat [17]): 10
- Wheat plant response rating (wheat [17]): 0
- Plant response rating, Ragweed (ragweed [18]): 30
- Ragweed plant response rating (ragweed [18]): 0
- Plant response rating, Blackgrass (blackgrass [19]; [22]): 80
- Plant response rating, Blackgrass (blackgrass [19]; [23]): 80
- Plant response rating, Foxtail, Green (green foxtail): 100
- Foxtail, Green plant response rating (green foxtail): 100
- Plant response rating, Barnyardgrass (barnyardgrass [20]; [22]): 60
- Plant response rating, Barnyardgrass (barnyardgrass [20]; [23]): 80
- Plant response rating, Corn (corn [21]): 0
- Corn plant response rating (corn [21]): 0
